{"source": "patent US7294511B2", "about": "“Methods for delivering nucleic acid molecules into cells and assessment thereof” (Chromos Molecular Systems, Inc., priority 2001, dated 2007)", "key": {"A9 cells": {"test_system": "A9 cells", "test": "Ultrasound mediated transfection of A9 cells with GFP chromosomes and Saint-2", "assay_type": "cell-based, murine", "protocol": "(§1) Alternatively, the medium was removed from the cells, and the cells were washed twice with HBSS. 500 μl HBSS/lipid solution at 37° C. was added to each well. The HBSS/lipid solution was prepared by adding 1 μl ethanolic lipid solution (prepared as described above) to 500 μl HBSS under vigorous vortexing. The plates were then sealed with parafilm tape and shaken gently at room temperature for 30 min. After incubation, ultrasound was applied at an output energy of 0.5 Watt/cm^2 for 60 sec through the bottom of the plate to the cells. The ultrasound was mediated by an ultrasound gel (Aquasonic 100, Parker, N.J.) between transducer and plate. The ultrasound was applied with an ImaRx Sonoporator 100. Immediately after applying ultrasound one GFP chromosome per seeded cell (2×10^5-5×10^5) (prepared in Example 1) was added. The plate was then sealed again and shaken gently for 1 h at room temperature. After the incubation 1 ml medium (CHO—S-SFM 2 with 10% Fetal Calf Serum, 10000 μg/ml Penicillin and 10000 μg/ml Streptomycin Gibco BRL, Paisley, UK) was added to each well and the cells were incubated for 24 h at 37° C. The cells were then washed with medium, 1 ml medium was added, and the cells were incubated at 37° for another 24 h. Detection of expressed genes was then assayed by microscopy or detection of the transferred chromosome by FISH analysis. […]"}, "CHO-KI cells": {"test_system": "CHO-KI cells", "test": "Ultrasound mediated transfection of CHO-KI cells with GFP chromosomes and Saint-2", "assay_type": "cell-based", "protocol": "Vesicles were prepared at a lipid concentration of 700 nmol/ml lipid (cationic lipid/DOPE 1:1) as follows. In a glass tube (10 ml) 350 nmol cationic lipid (SAINT-2) was mixed with 350 nmol dioleoylphosphatidylethanolamine (DOPE), both solubilized in an organic solvent (Chloroform, Methanol or Chloroform/Methanol 1:1, v/v). dioleoylphosphatidylethanolamine (DOPE; Avanti Polar Lipids, Alabaster, Ala.) forms inverse hexagonal phases in a membrane and weakens the membrane. Other effectors that may be used are cis-unsaturated phosphatidylethanolamines, cis-unsaturated fatty acids, and cholesterol.\nThe solvent was evaporated under a stream of nitrogen (15 min/250 μl solvent at room temperature). The remaining solvent was removed totally by drying the lipid for 15 min in an desiccator under high vacuum from a vacuum pump. To the dried mixture was added 1 ml ultrapure water. This was vortexed vigorously for about 5 min. The resulting solution was sonicated in an ultrasonication bath (Laboratory Supplies Inc. N.Y.) until a clear solution was obtained. The resulting suspension contained a population of unilamellar vesicles with a size distribution between 50 to 100 nm.\nCHO-KI cells were grown at 37° C., 5% CO2, in CHO—S-SFM 2 Medium, (Gibco BRL, Paisley, UK). Between 2×10^5 and 5×10^5 cells were plated onto sterile glass slides in a 12 well plate 24 h before usage.\nTransfection of the cells was performed as follows. The medium was removed from the cells, and the cells were washed twice with HBSS (Hanks balanced salt solution without Phenol Red (Gibco BRL, UK)) at 37° C. Then 500 μl HBSS at 37° C. was added per well, followed by 10 μl of the freshly prepared vesicle solution (prepared in Example 2) to yield a final concentration of 23.3 nmol/ml.\nas §1, with “temperature.” for “temperature. After the incubation 1 ml medium (CHO—S-SFM 2 with 10% Fetal Calf Serum, 10000 μg/ml Penicillin and 10000 μg/ml Streptomycin Gibco BRL, Paisley, UK) was added to each well and the cells were incubated for 24 h at 37° C. The cells were then washed with medium, 1 ml medium was added, and the cells were incubated at 37° for another 24 h. Detection of expressed genes was then assayed by microscopy or detection of the transferred chromosome by FISH analysis.”"}, "Hep-G2 cells": {"test_system": "Hep-G2 cells", "test": "Ultrasound mediated transfection of Hep-G2 cells with GFP chromosomes and Saint-2", "assay_type": "cell-based", "protocol": "as §1"}}, "data": [{"smiles": "CCCCCCCCC=CCCCCCCCCC(CCCCCCCCC=CCCCCCCCC)c1cc[n+](C)cc1.[Cl-]", "note": "(centres unmarked) [Saint-2, 1-methyl-4-(1-octadec-9-enyl-nonadec-10-enylenyl)pyridinium chloride]", "values": [{"measurement": "cells remained on the glass after transfection", "setting": "A9 cells; A9, Saint-2/DOPE, ultrasound 0.5 Watt/cm^2 60 sec", "result": 30, "unit": "%"}, {"measurement": "remaining cells positive for green fluorescent protein expression", "setting": "A9 cells; A9, of the cells remaining on the glass", "result": 50, "unit": "%"}, {"measurement": "cells remained on the glass slide after transfection", "setting": "CHO-KI cells; Saint-2/DOPE, ultrasound 0.5 Watt/cm^2 60 sec, visual inspection", "result": 30, "unit": "%"}, {"measurement": "GFP positive cells as % of original population", "setting": "CHO-KI cells; after 48 hours", "result": 3, "unit": "%"}, {"measurement": "remaining cells positive for green fluorescent protein expression", "setting": "CHO-KI cells; after 48 hours, of the cells remaining on the slide", "result": 10, "unit": "%"}, {"measurement": "cells containing an intact artificial chromosome (FISH)", "setting": "CHO-KI cells; after culturing for two weeks", "result": 1.4, "unit": "%"}, {"measurement": "cells remained on the glass slide after transfection", "setting": "Hep-G2 cells; Hep-G2, Saint-2/DOPE, ultrasound 0.5 Watt/cm^2 60 sec", "result": 30, "unit": "%"}, {"measurement": "remaining cells positive for green fluorescent protein expression", "setting": "Hep-G2 cells; Hep-G2, of the cells remaining on the slide", "result": 80, "unit": "%"}]}]}
